Data set [1] concerns ICAM-1. Put plainly: TNFα-induced ICAM-1 expression in human arterial endothelial cells (ELISA). Type of data set: cell-based. The procedure:
Inhibition of TNFα-stimulated endothelial cell activation by compounds was assessed by measuring surface expression of cell adhesion molecules with an ELISA method. Human arterial endothelial cells (HAEC) in growth medium (Cell Applications Inc.) were seeded into 96-well plates at a density of 10,000 cells per well. Plates were incubated overnight at 37° C. in a humidified incubator to allow for cells to become confluent. On the morning of the experiment, TNFα (10 μl, 2 ng/ml) was added to each well, which contained 100 μl of medium. Compounds were diluted in DMSO-containing medium (2.5% DMSO) to give a compound concentration of 100 and 300 μM. Compounds were added to wells so that final concentrations were 10 and 30 μM. DMSO-containing medium alone was added to zero concentration control wells. All samples were measured in quadruplicate (4 wells per treatment).
After incubation with compound, medium was removed and cells were probed with either non-specific IgG or specific mouse antibodies against E-selectin, ICAM or VCAM (BD Biosciences—0.1 μg in 100 μL buffered saline with 10% heat-inactivated human serum). Adhesion molecule expression was detected by addition of sheep anti-mouse antibody/horseradish peroxidase conjugate. […] Optical density was measured at 405 nm with an ELISA reader (Titertek Multiscan, Flow Laboratories). […]

Data set [2] has as its system MM200. The data set is described as follows: Anti-cancer activity, MM200 melanoma cells (MTT). Particulars: 120 h; 5 days, MTT. The class given is cell-based.
Data set [3] relates to THP-1 cells. The data set is described as follows: Cell viability of THP-1 cells in the NFκB assay. Type of data set: cell-based, human. The following applies: 50 μM and 100 μM. The procedure:
In brief, genetically modified THP-1 cells were seeded into wells of a 96-well plate (50×10^3 cells/well) in the presence of RPMI 1640 medium (70 μl). TNFα was added to each well (10 μl) to give a final concentration of 7.5 ng/ml. Dialyzed bovine serum was added (10 μl). Compounds dissolved in DMSO (10 μL) were then added (5 wells for each compound). Each plate contained a no-cell control (4 wells), a no-serum control (4 wells) and two serum controls. Plates were incubated for 5 h at 37° C. to allow for NFκB-stimulated beta-lactamase production. LiveBLAzer™ FRET B/G Substrate (CCF4-AM) substrate was then added to assay. CCF4-AM is a Forster resonance energy transfer (FRET) based substrate for beta-lactamase developed by Invitrogen Corp. Once CCFA-AM enters a cell, it is converted to negatively charged CCF4 by endogenous esterases. Excitation of this substrate at 409 nm leads to efficient FRET between the coumarin and fluorescein moieties, resulting in a green fluorescence detectable at 530 nm. The presence of beta-lactamase leads to cleavage of CCF4 and results in a loss of FRET, resulting in a robust blue fluorescent signal detectable at 460 nm. Thus, activity of beta-lactamase (a marker of NFκB-promoter activity) is measured as a product to substrate ratio (blue/green fluorescence ratio: 460 nm/530 nm). […]

Data set [4] can be described thus: Free radical scavenging with DPPH. Particulars: for EC50: DPPH, read-out: Free radical scavenging ability EC50. An outline of the steps: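 Compounds reacted with DPPH in ethanol for 20 min, screened at 100 μM, and absorbance at 517 nm compared with a DPPH-ethanol blank. IC50 was taken as the concentration giving a 0.6 absorbance change, with 1.2 units representing total scavenging.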
(In general: DPPH is a stable violet radical that fades when it is reduced.)

“Also recorded” adds a separate entry of the source. Like-named read-outs stand apart in the source and are kept apart here.

`Oc1ccc(C2=Cc3cc4c(cc3OC2)OCN(Cc2ccccc2)C4)cc1` [Compound 1, 4-(3-Benzyl-2,3,4,8-tetrahydrochromeno[6,7-e][1,3]oxazin-7-yl)phenol]: in data set [1] (TNFα-stimulated HAEC, 4 hrs, FIG. 18), the “inhibition of ICAM expression” value was 10-50%. In addition, in data set [2], the concentration for half-maximal inhibition (IC50) – broadly, the concentration at which inhibition is half-maximal – turned out to be 6.1 ± 1.6 µM. Besides, in data set [3], the “cell viability” value is recorded as “reduced cell viability”.

Turning to `CC(c1ccccc1)N1COc2cc3c(cc2C1)C=C(c1ccc(O)cc1)CO3` (stereo not drawn) [Compound 2, 4-(3-(1-Phenylethyl)-2,3,4,8-tetrahydrochromeno[6,7-e][1,3]oxazin-7-yl)phenol], the EC50 (as a rule, the midpoint of the concentration-response curve) in data set [4] (20 minutes, absorbance 517 nm, Table 4) amounted to 21.4 µM. Moreover, the IC50 in data set [2] stood at 4.76 ± 1.3 µM. Further, the “cell viability” value in data set [3] is “reduced cell viability”.

`Oc1cccc(C2=Cc3ccc(O)cc3OC2)c1` [Compound 37-DHE, 3′,7-dihydroxy-isoflav-3-ene, reference compound]: the “effect on TNFα-induced ICAM-1 expression” value in data set [1] (HAEC, 10 μM found most appropriate for comparing) is listed as “less pronounced”. The “free radical scavenging / antioxidant activity in DPPH screen” value in data set [4] (100 μM, ΔAbs>0.3 criterion) is on record as “free radical scavenging activity; also recorded: potent free radical scavenging ability”. Also, in data set [4] (comparative, Table 13), the EC50 came out at 55 µM.

These data come from patent publication US8367659B2, “Oxazinyl isoflavonoid compounds, medicaments and use” (Marshall Edwards, Inc., priority 2007, dated 2013).
